In patent publication US8536132B2, “Lymphatic zip codes in tumors and pre-malignant lesions” (Sanford-Burnham Medical Research Institute, priority 2006, dated 2013):
Entries after “also recorded” stand apart in the source; their conditions may differ.

Key:
[1] = tested on: MMTV-PyMT premalignant lesions; experiment: In vivo phage homing to MMTV-PyMT premalignant lesions; set-up: species or system mouse
Experimental: (§1) The following cell lines were maintained in DMEM supplemented with 10% FCS: C8161 human melanoma, MDA-MB-435 human breast cancer, KRIB human osteosarcoma, and human prostate cancer cells PPC1, DU145. LNCaP human prostate cancer cell line was grown in RPMI 1640 medium with 10 mM HEPES, 1 mM sodium pyruvate and 1.5 g/L sodium bicarbonate supplemented with 10% FCS. M12 human prostate cancer cell line was cultured in RPMI 1640 with 5 μg/ml insulin-transferrin-sodium selenite (ITS), 2.5 μg/ml fungizone, 50 μg/ml gentamycin, 0.2 μM dexamethasone, 10 ng/ml epidermal growth factor (EGF), and 5% FCS (Bae et al., 1998). To produce tumors, nude BALB/c and C56BL/6 mice were subcutaneously (C8161, KRIB, and PPC1) or orthotopically ([…], PPC1, DU145, M12, and LNCaP) injected with 1×10^6 tumor cells. Transgenic mouse tumor models included TRAMP prostate cancer, MMTV-PyMT breast cancer, and K14-HPV16 cervical cancer. To initiate cervical carcinogenesis, female K14-HPV16 mice (Arbeit et al., 1994) were treated with 17β-estradiol (E2; (Arbeit et al., 1996; Giraudo et al., 2004). Briefly, one-month-old virgin female transgenic (heterozygous K14-HPV16, 1203#1) and nontransgenic (FVB/n) mice were anesthetized with isoflurane, and continuous release pellets that deliver E2 at doses of 0.05 mg over 60 days (Innovative Research of America, Sarasota, Fla., USA) were implanted subcutaneously in the dorsal back skin. Subsequent pellets were implanted at 3 and 5 months of age for a total of 6 months of hormone treatment. K14-HPV16 mice were maintained in the FVB/n background (FVB/n; The Jackson Laboratory). The mice were maintained in accordance with the University of California, San Francisco (UCSF) institutional guidelines governing the care of laboratory mice. The animal experimentation was approved by Animal Research Committees at UCSF or The Burnham Institute.
In vivo homing specificity of phage was tested as described (Hoffman, 2004). Briefly, mice bearing tumors were anesthetized and intravenously injected with 5×10^9 pfu of phage. […]

[2] = tested on: K14-HPV16/E2 and MMTV-PyMT lesions and tumors; experiment: Fluorescent AGR peptide homing to lesions and tumors of K14-HPV16/E2 and MMTV-PyMT mice; format: in vivo, mouse
Experimental: (§2) The frozen sections were prepared for immunohistological analysis.

[3] = tested on: cell suspension derived from pre-malignant prostate lesions; experiment: Phage binding to cell suspension derived from pre-malignant prostate lesions; format: cell-based, mouse; settings: phage clones
Experimental: (§3) An NNK-encoded CX7C library display on T7Select415-1 phage (Novagen) was prepared as previously described (Laakkonen et al., 2002). Phage selection and validation have been described (Hoffman, 2004). A two-step procedure was designed for the selection of peptides targeting the tumor lymphatic vessels of pre-malignant prostate lesions and prostate tumor. First, the phage library was incubated with cells derived from normal prostate to subtract the phage that bind to normal prostate. Second, the anti-podoplanin magnetic beads were used to isolate lymphatic endothelial cells. 2-3 rounds of ex vivo selection and 2-3 rounds of in vivo selections were performed. For the ex vivo selections, cell suspensions were prepared from normal prostates of tumor-free littermates of TRAMP mice, pre-malignant prostates of 14- to 16-week-old TRAMP mice, and tumor tissues of 25- to 28-week-old TRAMP mice. Collagenase IA (1 mg/ml, Sigma) was used to disperse the tissues. About 1×10^7 normal prostate cells were incubated at 4° C. for 3 hrs with […] plaque forming units (pfu) of T7 phage displaying a CX7C peptide library. The samples were centrifuged at 1200 rpm for 10 min, the supernatant (the normal prostate-subtracted phage library) was recovered and then incubated overnight at 4° C. with 5×10^7 cells derived from pre-malignant prostate tissue or prostate tumor. The cells were washed to remove unbound phage, incubated with rat anti-mouse podoplanin for 45 min at 4° C., and washed three times with cold PBS containing 0.5% BSA. Podoplanin-positive cells were then isolated using M450 sheep anti-rat IgG Dynabeads (M450; Dynal, Oslo, Norway). Phage that bound to the podoplanin-positive cell population were rescued and amplified in E. coli. In vivo phage library screening was performed as described (Laakkonen et al., 2002).

[4] = tested on: PPC1 tumor-derived cell suspensions; experiment: REA phage binding to PPC1 tumor-derived cell suspensions; format: cell-based; settings: listed as REA-phage
[5] = tested on: K14-HPV16 skin cancer; experiment: In vivo homing to K14-HPV16 skin cancer; set-up: species or system mouse
Experimental: as §1
(§4) In vivo homing specificity of phage was tested as described (Hoffman, 2004). Briefly, mice bearing tumors were anesthetized and intravenously injected with 5×10^9 pfu of phage. After 7 min, the mice were perfused through the heart with PBS containing 0.5% BSA. The tumor and control organs were dissected from each mouse and the phage were rescued and tittered. For histology analysis, the mice were perfused with 4% PFA 30 min after the injection of phage. Tissues were embedded in Tissue-Tek O.C.T. and 5 μm sections were prepared for phage immunostaining.

[6] = tested on: M12 orthotopic xenografts; experiment: In vivo phage homing to M12 orthotopic xenografts; set-up: species or system mouse; settings: for phage homing to M12 xenografts (in words): i.v. injected phage
Experimental: as §1, §4

[7] = tested on: tumor derived cell suspensions (TRAMP); experiment: Phage binding to TRAMP tumor derived cell suspensions; format: cell-based, mouse; settings: phage clones
Experimental: as §3

[8] = tested on: MDA-MB-435 orthotopic xenografts; experiment: In vivo phage homing to MDA-MB-435 orthotopic xenografts; set-up: species or system mouse
Experimental: as §1, §4

[9] = tested on: DU145 orthotopic xenografts; experiment: In vivo phage homing to DU145 orthotopic xenografts; set-up: species or system mouse; settings: for phage homing to DU145 xenografts (in words): i.v. injected phage
Experimental: as §1, §4

[10] = tested on: PPC1 orthotopic xenografts; experiment: In vivo phage homing to PPC1 orthotopic xenografts; set-up: species or system mouse; settings: for phage homing to PPC1 orthotopic xenografts (in words): i.v. injected phage
Experimental: as §1, §4

[11] = tested on: K14-HPV16/E2 cervical lesions; experiment: Distribution of fluorescent peptides in K14-HPV16/E2 mice with cervical lesions; format: in vivo, mouse; settings: labeled peptide i.v.
Experimental: as §2

[12] = tested on: LNCaP orthotopic xenografts; experiment: In vivo phage homing to LNCaP orthotopic xenografts; set-up: species or system mouse; settings: for phage homing to LNCaP xenografts (in words): i.v. injected phage
Experimental: as §1, §4

[13] = tested on: C8161 xenografts; experiment: In vivo phage homing to C8161 xenograft tumors; set-up: species or system mouse
Experimental: as §1, §4

[14] = tested on: cultured PPC1 cells; experiment: REA phage binding to cultured PPC1 cells; format: cell-based, human; settings: listed as REA-phage
[15] = phage homing in vivo, MMTV-PyMT premalignant lesions
[16] = phage homing in vivo, K14-HPV16 skin cancer
[17] = phage homing in vivo, M12 orthotopic xenografts
[18] = phage homing in vivo, MDA-MB-435 orthotopic xenografts
[19] = phage homing in vivo, DU145 orthotopic xenografts
[20] = phage homing in vivo, PPC1 orthotopic xenografts
[21] = phage homing in vivo, LNCaP orthotopic xenografts
[22] = phage homing in vivo, C8161 (s.c.) xenografts

Sequence: CAGRRSAYC [homing peptide for pre-malignant TRAMP prostate lesions]
- phage homing to MMTV-PyMT premalignant lesions (in words) ([1]; i.v. injected phage): little homing of the phage
- Fold over control phage [1, 15]: 2 fold
- Specific Homing [1, 15]: No
- peptide binding to MMTV-PyMT dysplastic breast lesion [2]: weakly positive
- peptide homing to lesions or malignant tumors in K14-HPV16/E2 and MMTV-PyMT models [2]: no detectable homing of the peptide
- binding to cell suspension from pre-malignant prostate lesions (in words) [3]: bound

Sequence: CREAGRKAC [homing peptide for prostate tumor lymphatics]
- phage binding to PPC1 tumor-derived cell suspensions (in words) [4]: binds to cell suspensions derived from PPC1 tumors; also recorded: strongly bound
- homing to K14-HPV16 skin cancers (in words) ([5]; i.v. injection, K14-HPV16 mice): negative for REA binding
- Fold over control phage [5, 16]: 4 fold
- Specific Homing [5, 16]: No
- phage homing to M12 xenografts (in words) ([6]; listed as REA phage): homed
- phage homing to M12 xenografts (in words) ([6]; listed as REA-phage): Significant phage homing
- Fold over control phage [6, 17]: 24 fold
- Specific Homing [6, 17]: Yes
- binding to TRAMP tumor derived cell suspensions (in words) [7]: robust binding
- phage homing to MDA-MB-435 tumors (in words) ([8]; i.v. injected phage): negative for REA binding
- Fold over control phage [8, 18]: 4 fold
- Specific Homing [8, 18]: No
- phage homing to DU145 xenografts (in words) ([9]; listed as REA phage): homed
- phage homing to DU145 xenografts (in words) ([9]; listed as REA-phage): Significant phage homing
- Fold over control phage [9, 19]: 14 fold
- Specific Homing [9, 19]: Yes
- phage homing to PPC1 orthotopic xenografts (in words) ([10]; listed as REA phage): homed
- phage homing to PPC1 orthotopic xenografts (in words) ([10]; listed as REA-phage): Significant phage homing
- Fold over control phage [10, 20]: 25 fold
- Specific Homing [10, 20]: Yes
- fluorescent peptide in K14-HPV16/E2 cervical lesions/tumors (in words) [11]: slightly positive
- phage homing to LNCaP xenografts (in words) ([12]; listed as REA phage): homed
- phage homing to LNCaP xenografts (in words) ([12]; listed as REA-phage): Significant phage homing
- Fold over control phage [12, 21]: 20 fold
- Specific Homing [12, 21]: Yes
- phage homing to C8161 tumors (in words) ([13]; i.v. injected phage, C8161 xenograft mice): negative for REA binding
- Fold over control phage [13, 22]: 5 fold
- Specific Homing [13, 22]: No
- phage binding to cultured PPC1 cells (in words) [14]: not to cultured PPC1 cells; also recorded: did not bind
